Several values for one entry are separate records, joined by “and”; a condition that tells them apart may be missing. Equal entries are not always repeated.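 Interpolation was linear, between the two tested concentrations surrounding the appropriate level; five concentrations were tested over 48 hours in 96-well plates. Here, GI50 denotes the concentration required for 50% inhibition of growth. Definition used: TGI = concentration required for complete inhibition of growth.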 Where a SMILES comes first, the peptide text is derived from it. [ ]: non-standard residue; d: D form. The star is where a group is joined. ξ: configuration not given here. dIva = CC[C@@](C)(N)C(=O)O; Aib = CC(C)(N)C(=O)O; ξP = O=C(O)C1CCCN1; βAla = NCCC(=O)O; X5 = OCN*

This assay has as its system MDA-MB-468 breast. Briefly: NCI tumour cell line growth inhibition, 48 h.
Regarding `CN1CCN(Cc2ccc(NC(=O)c3[nH]ncc3Nc3cc(OC4CCCC4)ncn3)cc2)CC1`, the GI50 was 1980 nM and the TGI was 4770 nM. As to `NC(N)=N/N=C/c1ccc(Br)cc1`, the GI50 was 1500 nM and the TGI turned out to be 4810 nM. The like results for `COC(=O)[C@]1(C)CC[C@]2(C)CC[C@]3(C)C(=CC(=O)[C@@H]4[C@@]5(C)CCC(=O)NC(C)(C)[C@@H]5CC[C@]43C)[C@@H]2C1` were, in that order, 18300 nM and 64200 nM. The like results for `CC1(C)N=C(N)N=C(N)N1c1ccc(CCC(=O)Nc2cccc(S(=O)(=O)F)c2)cc1` were, in that order, 1310 nM and above 100000 nM. The like results for `COc1ccc(-c2cc3c(N)ncnc3o2)cc1` were, in that order, above 25000 nM and above 25000 nM.

For the compound `CCC(=O)Oc1ccc(/C=N/NC(N)=S)nc1`, the GI50 was 1970 nM and the TGI came out at 7220 nM.

With `O=S1(=O)C=C(c2ccccc2)C(c2ccccc2)=C1`, the GI50 is 1140 nM and the TGI amounted to 2460 nM. The like results for `CC(=O)N1c2ccc(-c3ccc(C(=O)O)cc3)cc2[C@H](Nc2ccc(Cl)cc2)C[C@@H]1C` were, in that order, 131 nM and 17300 nM. The like results for `CNCC1CCn2c(c(C3=C(c4cn(C)c5ccccc45)C(=O)NC3=O)c3ccccc32)C1` (stereo unspecified) were, in that order, 2620 nM and 6580 nM. As for `COC(=O)CCc1c(/C=C2\N=C(c3ccc[nH]3)C=C2OC)[nH]c(C)c1C(=O)OCc1ccccc1`, the GI50 was 842 nM and the TGI turned out to be 4400 nM. In the same order, the values of `CN1CCN(Cc2ccc(NC(=O)c3cncc(C#Cc4ncc5ccccn45)c3)cc2C(F)(F)F)CC1` are 2780 nM and 7900 nM. The like results for `Nc1nc(N)c(-c2ccc(Cl)cc2)c(/C=C/c2ccc([N+](=O)[O-])cc2)n1` were, in that order, 3020 nM and above 100000 nM. The like results for `COc1ccccc1/C=C/C=N/NC1=NC2C(S1)N(C)C(=O)N2c1ccccc1` (stereo unspecified) were, in that order, 428 nM and 31000 nM. Consider `CCC(=O)OCN1C(=O)C=CC1=O`, for which the GI50 was 14100 nM and the TGI worked out at 32400 nM. For the compound `COc1ccc(-c2c(C#N)cnc(N)c2-c2nc3cc(C)c(C)cc3[nH]2)cc1`, the GI50 was 6220 nM and the TGI worked out at 23100 nM. The like results for `CC(=O)Nc1nc(C)c(-c2cc3c(c(S(C)(=O)=O)c2)C(=O)N([C@@H](C)C2CC2)C3)s1` were, in that order, 31600 nM and above 100000 nM. The like results for `COc1cc(OC)c2c(c1Cl)O[C@]1(C2=O)C(OCc2ccccc2)=CC(=O)C[C@H]1C` were, in that order, 741 nM and 47500 nM. In the case of `CC[C@@](C)(NC(=O)[C@H](C)NC(=O)CCNC(=O)C(C)(C)NC(=O)[C@H](C)NC(=O)[C@@H]1CCCN1C(=O)[C@@](C)(CC)NC(=O)[C@H](Cc1ccccc1)NC(=O)C1CCCN1C(=O)C(C)(C)NC(=O)C1CCCN1C(=O)C(C)(C)NC(C)=O)C(=O)NCCC(=O)N[C@@H](CC(C)C)C(=O)NC(C)(C)C(=O)NCCC(=O)N[C@@H](CC(C)C)C(=O)NC(C)(C)C(=O)NC(C)(C)C(=O)N[C@@H](CC(C)C)C(=O)NCCC(=O)NCO` (stereo partly specified) (Ac-[Aib][ξP][Aib][ξP]F[dIva]PA[Aib][βAla]A[dIva][βAla]L[Aib][βAla]L[Aib][Aib]L[βAla]-X5), the GI50 was 52.8 nM and the TGI came to 163 nM. The like results for `CC(CNc1nc(Nc2ccc(Cl)c(Cl)c2)nc(C(Cl)(Cl)Cl)n1)N(C)C` (stereo unspecified) were, in that order, 1470 nM and 2850 nM. As to `CN1C(=O)C(C)(C)Oc2c(-c3cn(C)c(=O)c4[nH]ccc34)cc(S(C)(=O)=O)cc21`, the GI50 is 551 nM and the TGI stood at 3700 nM. In the same order, the values of `O=C1/C(=C/c2cccc(F)c2)CN(C(=O)C(Cl)Cl)C/C1=C\c1cccc(F)c1` are 207 nM and 529 nM. Consider `NC(N)=NC(N)=NCc1ccco1`, for which the GI50 is 158000 nM and 36800 nM; the TGI is 500000 nM. Turning to `O=C1C=C(OCC=C(Cl)Cl)C(=O)c2ccccc21`, the GI50 was 1050 nM and the TGI is 3600 nM. The like results for `CN(C)CCNC(=O)c1ccc(-c2nc3ccc4[nH]ncc4c3c3c2COCC3)cc1` were, in that order, 169 nM and 360 nM.

`COc1cc[nH]c1/C=C1\C(=O)Nc2ccc([N+](=O)[O-])c(N3CC[C@@H](O)C3)c21`: the GI50 is 352 nM and the TGI was 995 nM. In the same order, the values of `C[C@H](c1ccc(Cl)cc1[N+](=O)[O-])N1C(=O)c2cc(I)ccc2NC(=O)[C@H]1c1ccc(Cl)cc1` are 16600 nM and above 100000 nM. In the same order, the values of `NS(=O)(=O)c1ccc(N=Nc2c(=O)[nH]c3ccc4[nH]cccc4c23)cc1` are 73.3 nM and 257 nM. Consider `COc1ccc2c(c1)NC(=O)CN2c1nc(C)nc2ccccc12`, for which the GI50 was 0.415 nM. Turning to `C=CC(=O)Nc1cccc(Nc2nc(Nc3ccc(N4CCN(C(C)=O)CC4)cc3OC)ncc2C(F)(F)F)c1`, the GI50 was 288 nM and 266 nM; the TGI is 1980 nM and 1620 nM. For `COc1ccc(/C=C/C(=O)/C=C(/C=C/c2ccc(OC)c(OC)c2OC)OB(F)F)c(OC)c1OC`, the GI50 was 2570 nM and the TGI was 9650 nM. In the same order, the values of `CCCCCCCCCCCCCCCC(N)c1ccccc1` (stereo unspecified) are 1580 nM and 3140 nM.

For the origin of these results see PubChem BioAssay (NCI).
